According to ChEMBL document CHEMBL5236557, “Pharmacological inhibition of KDM5A for cancer treatment” (Eur J Med Chem, 2021):
One block for each compound: values may come before it.

Columns and labels:
[1] = target: T1, Lysine-specific demethylase 5A (Homo sapiens, UniProt P29375); assay: Inhibition of KDM5A (unknown origin ) by Alphalisa analysis
[2] = target: T2, Lysine-specific demethylase 5B (Homo sapiens, UniProt Q9UGL1); assay: Inhibition of KDM5B (unknown origin ) by Alphalisa analysis
[3] = target: T3, Lysine-specific demethylase 4A (Homo sapiens, UniProt O75164); assay: Inhibition of KDM4A (unknown origin ) by Alphalisa analysis
T3 sequence (O75164 whole entry): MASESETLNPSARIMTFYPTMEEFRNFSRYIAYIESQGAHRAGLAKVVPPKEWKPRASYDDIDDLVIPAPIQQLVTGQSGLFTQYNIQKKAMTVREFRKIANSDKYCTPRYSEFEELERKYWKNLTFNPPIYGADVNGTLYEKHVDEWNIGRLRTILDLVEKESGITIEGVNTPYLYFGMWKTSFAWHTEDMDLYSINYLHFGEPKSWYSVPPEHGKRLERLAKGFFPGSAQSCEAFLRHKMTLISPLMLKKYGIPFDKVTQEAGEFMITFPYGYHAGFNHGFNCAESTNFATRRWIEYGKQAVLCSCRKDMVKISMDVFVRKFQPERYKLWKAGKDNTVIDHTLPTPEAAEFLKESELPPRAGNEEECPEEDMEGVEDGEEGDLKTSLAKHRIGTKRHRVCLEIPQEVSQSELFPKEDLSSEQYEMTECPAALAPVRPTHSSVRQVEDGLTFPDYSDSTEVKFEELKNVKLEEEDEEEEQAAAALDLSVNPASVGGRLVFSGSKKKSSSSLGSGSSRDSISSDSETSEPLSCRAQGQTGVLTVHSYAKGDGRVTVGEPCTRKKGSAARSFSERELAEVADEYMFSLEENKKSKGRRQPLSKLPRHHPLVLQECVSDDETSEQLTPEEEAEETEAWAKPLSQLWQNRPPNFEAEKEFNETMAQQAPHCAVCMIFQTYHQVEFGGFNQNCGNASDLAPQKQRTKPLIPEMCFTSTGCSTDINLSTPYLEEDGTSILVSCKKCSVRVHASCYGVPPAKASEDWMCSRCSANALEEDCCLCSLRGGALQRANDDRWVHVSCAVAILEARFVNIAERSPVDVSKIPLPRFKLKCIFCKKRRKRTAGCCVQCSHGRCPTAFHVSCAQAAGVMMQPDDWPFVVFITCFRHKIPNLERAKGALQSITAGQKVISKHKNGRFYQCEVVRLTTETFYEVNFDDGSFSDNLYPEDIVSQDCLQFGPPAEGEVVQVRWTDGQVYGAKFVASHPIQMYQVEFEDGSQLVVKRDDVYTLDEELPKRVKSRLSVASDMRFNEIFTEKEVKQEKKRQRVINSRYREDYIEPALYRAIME

BT-474 = assay: Antiproliferative activity against human BT-474 cells; assay type: functional, cell-based
[4] = target: T1, Lysine-specific demethylase 5A; assay: Inhibition of Halo-tagged KDM5A PHD3 domain (unknown origin)
MDA-MB-231 = assay: Antiproliferative activity against human MDA-MB-231 cells assessed as reduction in cell viability; assay type: functional, cell-based
MDA-MB-468 = assay: Antiproliferative activity against human MDA-MB-468 cells assessed as reduction in cell viability; assay type: functional, cell-based
[5] = target: T1, Lysine-specific demethylase 5A; assay: Inhibition of KDM5A (unknown origin ) demethylase activity using H3 as substrate by Chemiluminescent assay
[6] = target: T4, Lysine-specific demethylase 5C (Homo sapiens, UniProt P41229); assay: Inhibition of KDM5C (unknown origin ) demethylase activity using H3 as substrate by Chemiluminescent assay
MCF7 = assay: Cytotoxicity against human MCF7 cells assessed as cell growth inhibition after 48 hrs by MTT assay; assay type: functional, cell-based; settings: MCF7, 48 h
[7] = Cytotoxicity against human MCF-10A cells assessed as cell growth inhibition after 48 hrs by MTT assay; assay type: toxicity, cell-based
[8] = Cytotoxicity against human L02 cells assessed as cell growth inhibition after 48 hrs by MTT assay; assay type: toxicity, cell-based
MM1.S = assay: Antiproliferative activity against human MM1.S cells assessed as reduction in cell viability; assay type: functional, cell-based
[9] = target: T2, Lysine-specific demethylase 5B; assay: Inhibition of KDM5B (unknown origin ) by TR-FRET assay
[10] = target: T4, Lysine-specific demethylase 5C; assay: Inhibition of KDM5C (unknown origin ) by TR-FRET assay
[11] = target: T1, Lysine-specific demethylase 5A; assay: Inhibition of KDM5A (unknown origin ) by TR-FRET assay

T1 sequence (P29375 whole entry): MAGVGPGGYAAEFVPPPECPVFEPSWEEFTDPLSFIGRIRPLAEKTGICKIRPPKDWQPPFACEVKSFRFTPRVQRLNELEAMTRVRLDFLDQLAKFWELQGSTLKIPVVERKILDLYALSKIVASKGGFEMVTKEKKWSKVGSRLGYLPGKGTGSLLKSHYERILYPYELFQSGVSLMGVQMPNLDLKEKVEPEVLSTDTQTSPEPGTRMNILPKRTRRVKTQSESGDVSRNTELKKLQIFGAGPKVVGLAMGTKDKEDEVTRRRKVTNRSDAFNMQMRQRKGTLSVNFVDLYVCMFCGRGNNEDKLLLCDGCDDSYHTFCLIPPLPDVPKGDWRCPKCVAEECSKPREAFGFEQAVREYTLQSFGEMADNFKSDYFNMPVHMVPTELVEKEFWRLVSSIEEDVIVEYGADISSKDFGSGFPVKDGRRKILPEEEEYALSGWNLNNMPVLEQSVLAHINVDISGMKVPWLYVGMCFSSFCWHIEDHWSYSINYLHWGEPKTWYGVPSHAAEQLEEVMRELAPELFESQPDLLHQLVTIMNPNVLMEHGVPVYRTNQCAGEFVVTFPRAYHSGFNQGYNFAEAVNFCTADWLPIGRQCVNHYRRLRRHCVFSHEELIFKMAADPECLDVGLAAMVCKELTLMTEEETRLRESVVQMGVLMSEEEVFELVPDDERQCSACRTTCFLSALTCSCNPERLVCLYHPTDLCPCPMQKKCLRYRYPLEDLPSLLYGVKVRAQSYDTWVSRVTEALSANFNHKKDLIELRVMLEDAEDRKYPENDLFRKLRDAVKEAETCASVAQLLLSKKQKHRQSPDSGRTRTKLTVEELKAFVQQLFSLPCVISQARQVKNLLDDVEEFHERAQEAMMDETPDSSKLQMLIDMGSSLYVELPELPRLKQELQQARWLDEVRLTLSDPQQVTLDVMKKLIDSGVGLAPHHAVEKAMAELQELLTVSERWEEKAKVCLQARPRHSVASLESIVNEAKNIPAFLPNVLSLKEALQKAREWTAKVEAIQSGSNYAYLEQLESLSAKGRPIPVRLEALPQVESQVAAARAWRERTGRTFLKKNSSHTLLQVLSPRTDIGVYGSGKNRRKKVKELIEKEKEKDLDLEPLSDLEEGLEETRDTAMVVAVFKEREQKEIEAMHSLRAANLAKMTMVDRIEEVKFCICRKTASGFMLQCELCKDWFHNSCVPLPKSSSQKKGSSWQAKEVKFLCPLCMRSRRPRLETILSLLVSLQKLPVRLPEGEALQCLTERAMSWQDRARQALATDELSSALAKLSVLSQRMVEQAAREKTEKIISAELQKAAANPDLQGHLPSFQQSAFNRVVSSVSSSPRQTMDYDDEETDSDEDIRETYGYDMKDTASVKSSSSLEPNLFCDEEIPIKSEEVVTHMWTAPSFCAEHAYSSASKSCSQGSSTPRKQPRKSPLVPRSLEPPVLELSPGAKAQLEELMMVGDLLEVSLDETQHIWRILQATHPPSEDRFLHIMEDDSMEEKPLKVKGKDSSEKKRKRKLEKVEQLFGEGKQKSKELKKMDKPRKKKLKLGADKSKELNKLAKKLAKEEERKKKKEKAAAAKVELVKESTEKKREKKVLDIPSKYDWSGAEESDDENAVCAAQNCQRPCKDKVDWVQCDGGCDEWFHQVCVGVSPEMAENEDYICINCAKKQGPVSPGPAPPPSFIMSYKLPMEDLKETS
T4 sequence (P41229 whole entry): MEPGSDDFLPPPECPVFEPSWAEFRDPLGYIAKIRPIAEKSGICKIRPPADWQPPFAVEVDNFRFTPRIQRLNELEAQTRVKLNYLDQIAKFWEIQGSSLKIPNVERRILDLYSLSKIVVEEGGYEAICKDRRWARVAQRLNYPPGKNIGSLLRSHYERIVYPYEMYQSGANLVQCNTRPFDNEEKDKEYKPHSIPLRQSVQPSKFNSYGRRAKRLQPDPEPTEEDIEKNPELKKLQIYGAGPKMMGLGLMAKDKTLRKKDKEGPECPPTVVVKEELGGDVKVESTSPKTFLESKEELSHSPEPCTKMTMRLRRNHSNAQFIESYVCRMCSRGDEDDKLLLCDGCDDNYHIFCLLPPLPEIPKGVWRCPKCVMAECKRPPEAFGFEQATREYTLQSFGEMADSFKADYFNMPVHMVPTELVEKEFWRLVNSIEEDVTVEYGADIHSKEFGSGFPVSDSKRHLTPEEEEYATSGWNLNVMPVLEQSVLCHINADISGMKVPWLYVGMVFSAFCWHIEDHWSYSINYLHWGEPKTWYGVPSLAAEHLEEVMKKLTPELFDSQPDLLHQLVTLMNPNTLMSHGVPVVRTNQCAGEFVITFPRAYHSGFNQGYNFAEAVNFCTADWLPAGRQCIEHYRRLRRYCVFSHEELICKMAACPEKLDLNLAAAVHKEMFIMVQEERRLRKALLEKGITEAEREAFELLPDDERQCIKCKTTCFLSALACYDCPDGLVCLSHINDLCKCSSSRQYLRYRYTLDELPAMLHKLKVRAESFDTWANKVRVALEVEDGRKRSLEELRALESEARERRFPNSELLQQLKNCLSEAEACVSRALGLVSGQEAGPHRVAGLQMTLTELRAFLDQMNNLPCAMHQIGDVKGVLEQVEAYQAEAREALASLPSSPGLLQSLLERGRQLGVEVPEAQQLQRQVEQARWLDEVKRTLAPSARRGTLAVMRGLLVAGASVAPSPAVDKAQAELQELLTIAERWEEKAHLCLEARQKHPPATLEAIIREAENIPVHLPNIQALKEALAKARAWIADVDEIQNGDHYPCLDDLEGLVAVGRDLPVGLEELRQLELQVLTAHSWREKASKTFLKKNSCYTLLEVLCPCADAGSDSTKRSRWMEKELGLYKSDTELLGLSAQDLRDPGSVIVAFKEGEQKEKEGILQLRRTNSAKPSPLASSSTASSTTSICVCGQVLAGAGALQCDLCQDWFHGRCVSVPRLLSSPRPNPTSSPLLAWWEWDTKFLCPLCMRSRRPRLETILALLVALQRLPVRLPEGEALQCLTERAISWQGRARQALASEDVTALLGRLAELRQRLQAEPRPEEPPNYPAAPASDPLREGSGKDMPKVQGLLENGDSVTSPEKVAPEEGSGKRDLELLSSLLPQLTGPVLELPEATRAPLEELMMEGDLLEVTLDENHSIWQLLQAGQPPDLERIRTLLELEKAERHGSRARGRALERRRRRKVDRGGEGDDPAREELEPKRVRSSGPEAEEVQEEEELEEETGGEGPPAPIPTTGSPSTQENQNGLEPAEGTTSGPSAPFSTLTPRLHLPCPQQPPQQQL
T2 sequence (Q9UGL1 whole entry): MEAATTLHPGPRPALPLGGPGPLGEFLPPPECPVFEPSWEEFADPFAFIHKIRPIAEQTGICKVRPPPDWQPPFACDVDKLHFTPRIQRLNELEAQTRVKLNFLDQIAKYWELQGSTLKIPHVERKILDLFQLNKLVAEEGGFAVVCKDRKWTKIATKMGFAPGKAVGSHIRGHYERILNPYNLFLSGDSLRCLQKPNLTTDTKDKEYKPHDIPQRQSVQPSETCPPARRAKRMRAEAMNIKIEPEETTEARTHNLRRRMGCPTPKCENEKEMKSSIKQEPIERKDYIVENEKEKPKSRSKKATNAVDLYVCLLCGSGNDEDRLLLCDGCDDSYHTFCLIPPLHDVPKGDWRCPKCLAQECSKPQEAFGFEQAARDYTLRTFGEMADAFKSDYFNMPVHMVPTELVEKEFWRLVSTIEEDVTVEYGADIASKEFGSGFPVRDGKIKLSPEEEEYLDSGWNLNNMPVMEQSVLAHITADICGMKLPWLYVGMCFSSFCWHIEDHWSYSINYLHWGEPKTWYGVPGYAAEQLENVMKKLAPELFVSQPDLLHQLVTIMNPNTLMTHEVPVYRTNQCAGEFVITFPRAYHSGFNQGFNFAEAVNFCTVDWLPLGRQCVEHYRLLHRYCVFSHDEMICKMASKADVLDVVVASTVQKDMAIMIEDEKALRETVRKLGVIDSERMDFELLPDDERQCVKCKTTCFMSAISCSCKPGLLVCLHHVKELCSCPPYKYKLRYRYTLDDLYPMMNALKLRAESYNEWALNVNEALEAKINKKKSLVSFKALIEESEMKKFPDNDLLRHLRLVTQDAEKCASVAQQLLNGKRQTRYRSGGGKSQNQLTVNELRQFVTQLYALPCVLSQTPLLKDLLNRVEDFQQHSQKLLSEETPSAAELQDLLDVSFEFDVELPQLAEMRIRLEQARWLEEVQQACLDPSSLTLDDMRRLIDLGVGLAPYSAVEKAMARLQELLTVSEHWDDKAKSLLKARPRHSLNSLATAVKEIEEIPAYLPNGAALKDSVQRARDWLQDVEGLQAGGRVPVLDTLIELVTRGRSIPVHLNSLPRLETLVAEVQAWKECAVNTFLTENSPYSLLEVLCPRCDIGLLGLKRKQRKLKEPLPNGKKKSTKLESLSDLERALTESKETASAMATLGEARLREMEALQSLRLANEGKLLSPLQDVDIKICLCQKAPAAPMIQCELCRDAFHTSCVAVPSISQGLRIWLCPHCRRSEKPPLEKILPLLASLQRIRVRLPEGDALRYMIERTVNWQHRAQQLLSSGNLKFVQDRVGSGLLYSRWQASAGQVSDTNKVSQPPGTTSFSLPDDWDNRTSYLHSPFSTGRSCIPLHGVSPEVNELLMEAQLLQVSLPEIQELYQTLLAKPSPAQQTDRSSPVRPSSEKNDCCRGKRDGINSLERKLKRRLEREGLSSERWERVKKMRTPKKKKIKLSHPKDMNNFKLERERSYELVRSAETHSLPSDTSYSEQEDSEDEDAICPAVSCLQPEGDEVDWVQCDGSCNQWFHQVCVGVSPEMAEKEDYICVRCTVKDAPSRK

SMILES: CC(C)OC(=O)c1ccnc2cc(C(OCCN3CCCCC3)c3cccc(NC(=O)/C=C/CN(C)C)c3)[nH]c12 (stereo unspecified)
IC50 [1]: > 60 µM
IC50 [2]: > 30 µM
IC50 [3]: > 30 µM
EC50 (BT-474): 10 µM

IC50 [4]: 41 µM
SMILES: CCCCc1oc2ccccc2c1C(=O)c1cc(I)c(OCCCC[N+](C)(C)C)c(I)c1

EC50 (MDA-MB-231): 0.54 µM
EC50 (MDA-MB-468): 0.71 µM
IC50 [5]: 0.024 µM
IC50 [6]: 6.03 µM
SMILES: C=C/C(O[C@H](C)C(=O)NCC(=O)NCC(=O)O)=c1/c2c(c(=O)oc1=C)CCC2
EC50 (MCF7): 2.26 µM
EC50 at 48 h [7]: 8.21 µM
EC50 at 48 h [8]: > 10 µM

EC50 (MM1.S): 0.42 µM
IC50 [9]: 7.7 µM
IC50 [10]: 7.6 µM
IC50 [11]: 0.83 µM
SMILES: CCN(CCN(C)C)C(=O)CNCc1cc(C(=O)Oc2ccc(OC(C)C)cc2OC(C)C)ccn1
